From patent US20230265151A1, “GIP/GLP1 CO-AGONIST COMPOUNDS” (priority 2020, published 2023)
Read-outs that look alike come from different tables or passages of the source.

Key:
[1] = biological target: T1, human GIP receptor (hGIPR) (Homo sapiens, UniProt P48546); experiment: [125I]-GIP binding, SPA with membranes of CHO cells expressing hGIPR
T1 construct: expressed in transfected cells; crude membranes
T1 sequence (P48546 22-466): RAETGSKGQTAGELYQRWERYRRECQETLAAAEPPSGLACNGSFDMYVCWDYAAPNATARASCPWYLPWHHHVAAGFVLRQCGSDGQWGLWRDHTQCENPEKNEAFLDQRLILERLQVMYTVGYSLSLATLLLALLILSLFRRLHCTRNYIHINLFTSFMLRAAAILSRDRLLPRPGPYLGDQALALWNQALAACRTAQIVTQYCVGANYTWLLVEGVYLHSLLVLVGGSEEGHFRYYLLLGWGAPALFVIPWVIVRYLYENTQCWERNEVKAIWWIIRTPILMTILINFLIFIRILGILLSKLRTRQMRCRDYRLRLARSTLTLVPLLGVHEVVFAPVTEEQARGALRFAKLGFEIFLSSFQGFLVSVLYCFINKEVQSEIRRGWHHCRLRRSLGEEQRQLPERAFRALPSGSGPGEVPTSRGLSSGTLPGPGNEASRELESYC

hGIPR = biological target: T2, hGIPR (Homo sapiens, UniProt P48546); experiment: Functional cAMP formation (HTRF) in HEK-293 clonal cells expressing hGIPR, 0.1% bovine casein, without or with 1.0% human serum albumin; format: cell-based; conditions: for Emax: percent of maximal response to GIP(1-42)NH2; for EC50: cAMP
T2 construct: expressed in transfected cells
T2 sequence (P48546 22-466): T1 sequence (P48546 22-466)
Method in brief: (§1)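 Cells were stimulated with peptide for 30 min at 37° C, then intracellular cAMP was measured by competitive HTRF (665/620 nm ratio) and converted to nM using a cAMP standard curve. Relative EC50 and Emax came from four-parameter logistic fits of percent maximal response against peptide concentration.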

hGCGR = biological target: T3, hGCGR (Homo sapiens, UniProt P47871); experiment: Functional cAMP formation (HTRF) in HEK-293 clonal cells expressing hGCGR, 0.1% bovine casein, without or with 1.0% human serum albumin; format: cell-based; conditions: cAMP, 37° C.
T3 construct: expressed in transfected cells
T3 sequence (P47871 26-477): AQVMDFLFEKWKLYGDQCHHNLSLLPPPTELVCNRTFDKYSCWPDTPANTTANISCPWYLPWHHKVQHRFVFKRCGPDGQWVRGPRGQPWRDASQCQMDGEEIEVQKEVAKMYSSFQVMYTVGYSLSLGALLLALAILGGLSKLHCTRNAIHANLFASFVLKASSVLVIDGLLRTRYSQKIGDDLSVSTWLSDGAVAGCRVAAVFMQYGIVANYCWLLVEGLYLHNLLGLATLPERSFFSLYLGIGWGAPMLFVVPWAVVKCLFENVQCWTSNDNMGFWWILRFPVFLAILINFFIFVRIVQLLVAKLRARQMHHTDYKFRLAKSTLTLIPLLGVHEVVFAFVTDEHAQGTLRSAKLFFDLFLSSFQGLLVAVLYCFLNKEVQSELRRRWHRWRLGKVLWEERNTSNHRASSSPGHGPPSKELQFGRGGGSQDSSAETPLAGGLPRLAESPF
Method in brief: as §1

hGLP-1R = hGLP-1R (Homo sapiens, UniProt P43220); experiment: Functional cAMP formation (HTRF) in HEK-293 clonal cells expressing hGLP-1R, 0.1% bovine casein, without or with 1.0% human serum albumin; format: cell-based; design: expressed in transfected cells; conditions: for Emax: percent of maximal response to GLP-1(7-36)NH2; for EC50: cAMP
Sequence of hGLP-1R (P43220 24-463): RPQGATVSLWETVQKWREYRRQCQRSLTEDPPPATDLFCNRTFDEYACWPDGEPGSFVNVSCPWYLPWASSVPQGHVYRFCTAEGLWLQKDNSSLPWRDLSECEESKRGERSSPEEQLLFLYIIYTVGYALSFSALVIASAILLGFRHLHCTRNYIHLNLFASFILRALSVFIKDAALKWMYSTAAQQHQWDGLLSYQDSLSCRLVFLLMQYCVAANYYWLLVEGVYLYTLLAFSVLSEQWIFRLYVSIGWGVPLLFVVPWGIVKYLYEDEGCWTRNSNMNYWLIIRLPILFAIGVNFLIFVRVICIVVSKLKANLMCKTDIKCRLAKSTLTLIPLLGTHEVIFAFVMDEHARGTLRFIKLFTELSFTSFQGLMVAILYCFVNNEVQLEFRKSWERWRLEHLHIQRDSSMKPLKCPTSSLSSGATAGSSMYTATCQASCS
Method in brief: as §1

[2] = biological target: T4, human GLP-1 receptor (hGLP-1R) (Homo sapiens, UniProt P43220); experiment: [125I]-GLP-1 binding, SPA with membranes of HEK293 cells expressing hGLP-1R
T4 construct: expressed in transfected cells; crude membranes
T4 sequence (P43220 24-463): as above

[3] = human GIPR, geometric mean (SEM, n), read-out: Binding Affinity Ki, nM (SEM, n) hGIPR
[4] = HEK293, cAMP, 37° C., 0.1% bovine casein and 1.0% human serum albumin, read-out: hGIPR Emax, % ± SEM
[5] = 37° C., 0.1% bovine casein (no human serum albumin), geometric mean, read-out: hGIPR EC50, nM (SEM, n)
[6] = 0.1% bovine casein (no human serum albumin), geometric mean, read-out: hGCGR EC50, nM (SEM, n)
[7] = 0.1% bovine casein and 1.0% human serum albumin, geometric mean (SEM, n), read-out: hGCGR EC50, nM (SEM, n)
[8] = HEK293, cAMP, 37° C., 0.1% bovine casein, arithmetic mean, read-out: hGLP-1R Emax, % ± SEM
[9] = 37° C., 0.1% bovine casein (no human serum albumin), geometric mean, read-out: hGLP-1R EC50, nM (SEM, n)
[10] = human GLP-1R, geometric mean (SEM, n), read-out: Binding Affinity Ki, nM (SEM, n) hGLP-1R

Row | SMILES | Ki [1, 3] [nM] | Emax (hGIPR; [4]) [%] | EC50 (hGIPR; [5]) [nM] | EC50 (hGCGR; [6]) [nM] | EC50 (hGCGR; [7]) [nM] | Emax (hGLP-1R; [8]) [%] | EC50 (hGLP-1R; [9]) [nM] | Ki [2, 10] [nM] | also measured
1 | CC[C@H](C)[C@H](NC(=O)[C@H](CC(C)C)NC(=O)[C@](C)(Cc1ccc(O)cc1)NC(=O)[C@H](CCCCNC(=O)CCOCCOCCOCCOCCOCCOCCNC(=O)CC[C@H](NC(=O)CCCCCCCCCCCCC(=O)O)C(=O)O)NC(=O)[C@@H](NC(=O)[C@H](Cc1ccccc1)NC(=O)[C@H](CCCN)NC(=O)C(C)(C)NC(=O)[C@H](CCC(N)=O)NC(=O)[C@H](C)NC(=O)[C@H](CCC(N)=O)NC(=O)[C@H](CCCN)NC(=O)[C@H](CC(=O)O)NC(=O)[C@H](CC(C)C)NC(=O)[C@](C)(CC(C)C)NC(=O)[C@@H](NC(=O)C(C)(C)NC(=O)[C@H](Cc1ccncc1)NC(=O)[C@H](CC(=O)O)NC(=O)[C@H](CO)NC(=O)[C@@H](NC(=O)[C@](C)(Cc1ccccc1F)NC(=O)[C@@H](NC(=O)CNC(=O)[C@H](CCC(=O)O)NC(=O)C(C)(C)NC(=O)[C@@H](N)Cc1ccc(O)cc1)[C@@H](C)O)[C@@H](C)O)[C@@H](C)CC)[C@@H](C)CC)C(=O)N[C@@H](CCCCNC(=O)CCOCCOCCOCCOCCOCCOCCNC(=O)CC[C@H](NC(=O)CCCCCCCCCCCCC(=O)O)C(=O)O)C(=O)NCC(=O)NCC(=O)N1CCC[C@H]1C(=O)N[C@@H](CO)C(=O)N[C@@H](CO)C(=O)NCC(=O)N[C@@H](C)C(=O)N1CCC[C@H]1C(=O)N1CCC[C@H]1C(=O)N1CCC[C@H]1C(=O)N[C@@H](CO)C(N)=O [Example 466] | 0.0199 | 93.4 | 0.00971 | > 10100 | > 10100 | 105 | 0.156 | 0.2 | Emax (hGIPR; HEK293, cAMP, 37° C., 0.1% bovine casein, arithmetic mean, read-out: hGIPR Emax, % ± SEM): 98.8%
2 | CC[C@H](C)[C@H](NC(=O)[C@H](CC(C)C)NC(=O)[C@](C)(Cc1ccc(O)cc1)NC(=O)[C@H](CCCCNC(=O)COCCOCCNC(=O)COCCOCCNC(=O)CC[C@H](NC(=O)CC[C@H](NC(=O)CCCCCCCCCCCCC(=O)O)C(=O)O)C(=O)O)NC(=O)[C@@H](NC(=O)[C@H](Cc1ccccc1)NC(=O)[C@H](CCCN)NC(=O)C(C)(C)NC(=O)[C@H](CCC(N)=O)NC(=O)[C@H](C)NC(=O)[C@H](CCC(N)=O)NC(=O)[C@H](CCCN)NC(=O)[C@H](CC(=O)O)NC(=O)[C@H](CC(C)C)NC(=O)[C@](C)(CC(C)C)NC(=O)[C@@H](NC(=O)C(C)(C)NC(=O)[C@H](Cc1ccncc1)NC(=O)[C@H](CC(=O)O)NC(=O)[C@H](CO)NC(=O)[C@@H](NC(=O)[C@](C)(Cc1ccccc1F)NC(=O)[C@@H](NC(=O)CNC(=O)[C@H](CCC(=O)O)NC(=O)C(C)(C)NC(=O)[C@@H](N)Cc1ccc(O)cc1)[C@@H](C)O)[C@@H](C)O)[C@@H](C)CC)[C@@H](C)CC)C(=O)N[C@@H](CCCCNC(=O)COCCOCCNC(=O)COCCOCCNC(=O)CC[C@H](NC(=O)CC[C@H](NC(=O)CCCCCCCCCCCCC(=O)O)C(=O)O)C(=O)O)C(=O)NCC(=O)NCC(=O)N1CCC[C@H]1C(=O)N[C@@H](CO)C(=O)N[C@@H](CO)C(=O)NCC(=O)N[C@@H](C)C(=O)N1CCC[C@H]1C(=O)N1CCC[C@H]1C(=O)N1CCC[C@H]1C(=O)N[C@@H](CO)C(N)=O [Example 474] | 0.0427 | 85.6 | 0.0106 | > 9950 | > 9950 | 113 | 0.123 | 0.343 | EC50 (hGLP-1R; 37° C., 0.1% bovine casein and 1.0% human serum albumin, geometric mean (SEM, n), read-out: hGLP-1R EC50, nM (SEM, n)): 1.1 nM
3 | CC[C@H](C)[C@H](NC(=O)[C@H](CC(C)C)NC(=O)[C@](C)(Cc1ccc(O)cc1)NC(=O)[C@H](CCCCNC(=O)COCCOCCNC(=O)COCCOCCNC(=O)COCCOCCNC(=O)CC[C@H](NC(=O)CCCCCCCCCOc1ccc(C(=O)O)cc1)C(=O)O)NC(=O)[C@@H](NC(=O)[C@H](Cc1ccccc1)NC(=O)[C@H](CCCN)NC(=O)C(C)(C)NC(=O)[C@H](CCC(N)=O)NC(=O)[C@H](C)NC(=O)[C@H](CCC(N)=O)NC(=O)[C@H](CCCN)NC(=O)[C@H](CC(=O)O)NC(=O)[C@H](CC(C)C)NC(=O)[C@](C)(CC(C)C)NC(=O)[C@@H](NC(=O)C(C)(C)NC(=O)[C@H](Cc1ccncc1)NC(=O)[C@H](CC(=O)O)NC(=O)[C@H](CO)NC(=O)[C@@H](NC(=O)[C@](C)(Cc1ccccc1F)NC(=O)[C@@H](NC(=O)CNC(=O)[C@H](CCC(=O)O)NC(=O)C(C)(C)NC(=O)[C@@H](N)Cc1ccc(O)cc1)[C@@H](C)O)[C@@H](C)O)[C@@H](C)CC)[C@@H](C)CC)C(=O)N[C@@H](CCCCNC(=O)COCCOCCNC(=O)COCCOCCNC(=O)COCCOCCNC(=O)CC[C@H](NC(=O)CCCCCCCCCOc1ccc(C(=O)O)cc1)C(=O)O)C(=O)NCC(=O)NCC(=O)N1CCC[C@H]1C(=O)N[C@@H](CO)C(=O)N[C@@H](CO)C(=O)NCC(=O)N[C@@H](C)C(=O)N1CCC[C@H]1C(=O)N1CCC[C@H]1C(=O)N1CCC[C@H]1C(=O)N[C@@H](CO)C(N)=O [Example 477] |  |  |  |  |  |  |  |  | Ki [1]: 0.0279 nM; Emax (hGIPR; HEK293, read-out: hGIPR Emax, % ± SEM, cAMP, 37° C., 0.1% bovine casein and 1.0% human serum albumin): 88.1%; EC50 (hGIPR; hGIPR EC50, nM (SEM, n), 37° C., 0.1% bovine casein (no human serum albumin), geometric mean): 0.00861 nM; EC50 (hGIPR; hGIPR EC50, nM (SEM, n), 37° C., 0.1% bovine casein and 1.0% human serum albumin, geometric mean (SEM, n)): 0.163 nM; EC50 (hGCGR; hGCGR EC50, nM (SEM, n), 0.1% bovine casein (no human serum albumin), geometric mean): > 9950 nM; EC50 (hGCGR; hGCGR EC50, nM (SEM, n), 0.1% bovine casein and 1.0% human serum albumin, geometric mean (SEM, n)): > 9950 nM; Emax (hGLP-1R; HEK293, read-out: hGLP-1R Emax, % ± SEM, cAMP, 37° C., 0.1% bovine casein and 1.0% human serum albumin): 110%; Emax (hGLP-1R; HEK293, read-out: hGLP-1R Emax, % ± SEM, cAMP, 37° C., 0.1% bovine casein, arithmetic mean): 110%; EC50 (hGLP-1R; hGLP-1R EC50, nM (SEM, n), 37° C., 0.1% bovine casein (no human serum albumin), geometric mean): 0.143 nM; Ki [2]: 0.143 nM
4 | CC[C@H](C)[C@H](NC(=O)[C@H](CC(C)C)NC(=O)[C@](C)(Cc1ccc(O)cc1)NC(=O)[C@H](CCCCNC(=O)CC[C@H](NC(=O)COCCOCCNC(=O)COCCOCCNC(=O)CC[C@H](NC(=O)CCCCCCCCCCCCC(=O)O)C(=O)O)C(=O)O)NC(=O)[C@@H](NC(=O)[C@H](Cc1ccccc1)NC(=O)[C@H](CCCN)NC(=O)C(C)(C)NC(=O)[C@H](CCC(N)=O)NC(=O)[C@H](C)NC(=O)[C@H](CCC(N)=O)NC(=O)[C@H](CCCN)NC(=O)[C@H](CC(=O)O)NC(=O)[C@H](CC(C)C)NC(=O)[C@](C)(CC(C)C)NC(=O)[C@@H](NC(=O)C(C)(C)NC(=O)[C@H](Cc1ccncc1)NC(=O)[C@H](CC(=O)O)NC(=O)[C@H](CO)NC(=O)[C@@H](NC(=O)[C@](C)(Cc1ccccc1F)NC(=O)[C@@H](NC(=O)CNC(=O)[C@H](CCC(=O)O)NC(=O)C(C)(C)NC(=O)[C@@H](N)Cc1ccc(O)cc1)[C@@H](C)O)[C@@H](C)O)[C@@H](C)CC)[C@@H](C)CC)C(=O)N[C@@H](CCCCNC(=O)CC[C@H](NC(=O)COCCOCCNC(=O)COCCOCCNC(=O)CC[C@H](NC(=O)CCCCCCCCCCCCC(=O)O)C(=O)O)C(=O)O)C(=O)NCC(=O)NCC(=O)N1CCC[C@H]1C(=O)N[C@@H](CO)C(=O)N[C@@H](CO)C(=O)NCC(=O)N[C@@H](C)C(=O)N1CCC[C@H]1C(=O)N1CCC[C@H]1C(=O)N1CCC[C@H]1C(=O)N[C@@H](CO)C(N)=O [Example 482] | 0.0277 |  | 0.0158 | > 9950 | > 9950 | 118 | 0.169 | 0.254 | Emax (hGLP-1R; HEK293, cAMP, 37° C., 0.1% bovine casein and 1.0% human serum albumin, read-out: hGLP-1R Emax, % ± SEM): 110%
